Test system: healthy adult examinees
Assay: HRIPT (Human repeated insult patch tests), skin accumulated stimulus
Format: in vivo
Set-up: key to skin reactivity (ICDRG criteria): −: negative (no response); ±: doubtful or slight erythema, etc.; +: weak reaction (which is accompanied with no phlyctenule), erythema, papule; ++: severe reaction (which is accompanied with phylctenule), erythema, papule, phlyctenule; +++: strong reaction, bullae reaction
Settings: for average reactivity: 9 patches, 15 examinees; for Number of examinees who exhibited ±, +, or ++ reactivity 1st: 1st patch; for Number of examinees who exhibited ±, +, or ++ reactivity 2nd: 2nd patch; for Number of examinees who exhibited ±, +, or ++ reactivity 3rd: 3rd patch; for Number of examinees who exhibited ±, +, or ++ reactivity 4th: 4th patch; for Number of examinees who exhibited ±, +, or ++ reactivity 5th: 5th patch; for Number of examinees who exhibited ±, +, or ++ reactivity 6th: 6th patch; for Number of examinees who exhibited ±, +, or ++ reactivity 7th: 7th patch; for Number of examinees who exhibited ±, +, or ++ reactivity 8th: 8th patch; for Number of examinees who exhibited ±, +, or ++ reactivity 9th: 9th patch
Description: HRIPT (Human repeated insult patch tests) was conducted in order to identify skin accumulated stimulus of quercetin3-O-[3-O″-(E)-p-coumaroyl][β-D-glucopyranosyl-(1→3)-O-α-L-rhamnopyranosyl-(1→6)-O-β-D-glucopyranoside] and quercetin3-O-[3-O″-(E)-p-coumaroyl][α-L-rhamnopyranosyl-(1→6)-O-β-D-glucopyranoside]and to calculate the concentration range that can be used in skin.
Specifically, 15 healthy adult examinees were randomly selected, and test compositions in which the compounds were respectively comprised in an amount of 0.5 wt. %, 1 wt. %, and 3 wt. % (the compositions for skin, comprising an emulsifying agent, a stabilizer, purified water, etc. in addition to the compounds) were dropped in the amount of 20 μl per chamber (IQ chamber, Epitest Ltd, Finland), and patched on the right site of the upper back of the examinees, and then, after 24 hours, the patch was replaced with a new patch. A total of 9 patches were conducted, three times a week for total 3 weeks, in such manner, the skin reactions before and after patch were examined every time, and the skin reactions until 48 hours after removing the final patch were observed, and the average reactivity was observed.
The skin reaction was determined according to the criteria of International Contact Dermatitis Research Group (ICDRG). In the above table, “New Material 31” refers to quercetin3-O-[3-O″-(E)-p-coumaroyl][β-D-glucopyranosyl-(1→3)-O-α-L-rhamnopyranosyl-(1→6)-O-β-D-glucopyranoside], and “New Material 32” refers to quercetin3-O-[3-O″-(E)-p-coumaroyl][α-L-rhamnopyranosyl-(1→6)-O-β-D-glucopyranoside].

## C[C@@H]1O[C@@H](OC[C@H]2O[C@@H](Oc3c(-c4ccc(O)c(O)c4)oc4cc(O)cc(O)c4c3=O)[C@H](O)[C@@H](OC(=O)/C=C/c3ccc(O)cc3)[C@@H]2O)[C@H](O)[C@H](O)[C@H]1O [New Material 32, quercetin3-O-[3-O″-(E)-p-coumaroyl][α-L-rhamnopyranosyl-(1→6)-O-β-D-glucopyranoside]]
0.5 wt.% in test composition
  average reactivity: 0
0.5 wt.%, 1 wt.% and 3 wt.%, 9 patches in 3 weeks
  skin reactivity (ICDRG criteria): −
0.5 wt.%, line 1 of 3 (±)
  Number of examinees who exhibited ±, +, or ++ reactivity 1st: 0 number
  Number of examinees who exhibited ±, +, or ++ reactivity 2nd: 0 number
  Number of examinees who exhibited ±, +, or ++ reactivity 3rd: 0 number
  Number of examinees who exhibited ±, +, or ++ reactivity 4th: 0 number
  Number of examinees who exhibited ±, +, or ++ reactivity 5th: 0 number
  Number of examinees who exhibited ±, +, or ++ reactivity 6th: 0 number
  Number of examinees who exhibited ±, +, or ++ reactivity 7th: 0 number
  Number of examinees who exhibited ±, +, or ++ reactivity 8th: 0 number
  Number of examinees who exhibited ±, +, or ++ reactivity 9th: 0 number
0.5 wt.%, line 2 of 3 (+)
  Number of examinees who exhibited ±, +, or ++ reactivity 1st: 0 number
  Number of examinees who exhibited ±, +, or ++ reactivity 2nd: 0 number
  Number of examinees who exhibited ±, +, or ++ reactivity 3rd: 0 number
  Number of examinees who exhibited ±, +, or ++ reactivity 4th: 0 number
  Number of examinees who exhibited ±, +, or ++ reactivity 5th: 0 number
  Number of examinees who exhibited ±, +, or ++ reactivity 6th: 0 number
  Number of examinees who exhibited ±, +, or ++ reactivity 7th: 0 number
  Number of examinees who exhibited ±, +, or ++ reactivity 8th: 0 number
  Number of examinees who exhibited ±, +, or ++ reactivity 9th: 0 number
0.5 wt.%, line 3 of 3 (++)
  Number of examinees who exhibited ±, +, or ++ reactivity 1st: 0 number
  Number of examinees who exhibited ±, +, or ++ reactivity 2nd: 0 number
  Number of examinees who exhibited ±, +, or ++ reactivity 3rd: 0 number
  Number of examinees who exhibited ±, +, or ++ reactivity 4th: 0 number
  Number of examinees who exhibited ±, +, or ++ reactivity 5th: 0 number
  Number of examinees who exhibited ±, +, or ++ reactivity 6th: 0 number
  Number of examinees who exhibited ±, +, or ++ reactivity 7th: 0 number
  Number of examinees who exhibited ±, +, or ++ reactivity 8th: 0 number
  Number of examinees who exhibited ±, +, or ++ reactivity 9th: 0 number
1 wt.% in test composition
  average reactivity: 0
1 wt.%, line 1 of 3 (±)
  Number of examinees who exhibited ±, +, or ++ reactivity 1st: 0 number
  Number of examinees who exhibited ±, +, or ++ reactivity 2nd: 0 number
  Number of examinees who exhibited ±, +, or ++ reactivity 3rd: 0 number
  Number of examinees who exhibited ±, +, or ++ reactivity 4th: 0 number
  Number of examinees who exhibited ±, +, or ++ reactivity 5th: 0 number
  Number of examinees who exhibited ±, +, or ++ reactivity 6th: 0 number
  Number of examinees who exhibited ±, +, or ++ reactivity 7th: 0 number
  Number of examinees who exhibited ±, +, or ++ reactivity 8th: 0 number
  Number of examinees who exhibited ±, +, or ++ reactivity 9th: 0 number
1 wt.%, line 2 of 3 (+)
  Number of examinees who exhibited ±, +, or ++ reactivity 1st: 0 number
  Number of examinees who exhibited ±, +, or ++ reactivity 2nd: 0 number
  Number of examinees who exhibited ±, +, or ++ reactivity 3rd: 0 number
  Number of examinees who exhibited ±, +, or ++ reactivity 4th: 0 number
  Number of examinees who exhibited ±, +, or ++ reactivity 5th: 0 number
  Number of examinees who exhibited ±, +, or ++ reactivity 6th: 0 number
  Number of examinees who exhibited ±, +, or ++ reactivity 7th: 0 number
  Number of examinees who exhibited ±, +, or ++ reactivity 8th: 0 number
  Number of examinees who exhibited ±, +, or ++ reactivity 9th: 0 number
1 wt.%, line 3 of 3 (++)
  Number of examinees who exhibited ±, +, or ++ reactivity 1st: 0 number
  Number of examinees who exhibited ±, +, or ++ reactivity 2nd: 0 number
  Number of examinees who exhibited ±, +, or ++ reactivity 3rd: 0 number
  Number of examinees who exhibited ±, +, or ++ reactivity 4th: 0 number
  Number of examinees who exhibited ±, +, or ++ reactivity 5th: 0 number
  Number of examinees who exhibited ±, +, or ++ reactivity 6th: 0 number
  Number of examinees who exhibited ±, +, or ++ reactivity 7th: 0 number
  Number of examinees who exhibited ±, +, or ++ reactivity 8th: 0 number
  Number of examinees who exhibited ±, +, or ++ reactivity 9th: 0 number
3 wt.% in test composition
  average reactivity: 0
3 wt.%, line 1 of 3 (±)
  Number of examinees who exhibited ±, +, or ++ reactivity 1st: 0 number
  Number of examinees who exhibited ±, +, or ++ reactivity 2nd: 0 number
  Number of examinees who exhibited ±, +, or ++ reactivity 3rd: 0 number
  Number of examinees who exhibited ±, +, or ++ reactivity 4th: 0 number
  Number of examinees who exhibited ±, +, or ++ reactivity 5th: 0 number
  Number of examinees who exhibited ±, +, or ++ reactivity 6th: 0 number
  Number of examinees who exhibited ±, +, or ++ reactivity 7th: 0 number
  Number of examinees who exhibited ±, +, or ++ reactivity 8th: 0 number
  Number of examinees who exhibited ±, +, or ++ reactivity 9th: 0 number
3 wt.%, line 2 of 3 (+)
  Number of examinees who exhibited ±, +, or ++ reactivity 1st: 0 number
  Number of examinees who exhibited ±, +, or ++ reactivity 2nd: 0 number
  Number of examinees who exhibited ±, +, or ++ reactivity 3rd: 0 number
  Number of examinees who exhibited ±, +, or ++ reactivity 4th: 0 number
  Number of examinees who exhibited ±, +, or ++ reactivity 5th: 0 number
  Number of examinees who exhibited ±, +, or ++ reactivity 6th: 0 number
  Number of examinees who exhibited ±, +, or ++ reactivity 7th: 0 number
  Number of examinees who exhibited ±, +, or ++ reactivity 8th: 0 number
  Number of examinees who exhibited ±, +, or ++ reactivity 9th: 0 number
3 wt.%, line 3 of 3 (++)
  Number of examinees who exhibited ±, +, or ++ reactivity 1st: 0 number
  Number of examinees who exhibited ±, +, or ++ reactivity 2nd: 0 number
  Number of examinees who exhibited ±, +, or ++ reactivity 3rd: 0 number
  Number of examinees who exhibited ±, +, or ++ reactivity 4th: 0 number
  Number of examinees who exhibited ±, +, or ++ reactivity 5th: 0 number
  Number of examinees who exhibited ±, +, or ++ reactivity 6th: 0 number
  Number of examinees who exhibited ±, +, or ++ reactivity 7th: 0 number
  Number of examinees who exhibited ±, +, or ++ reactivity 8th: 0 number
  Number of examinees who exhibited ±, +, or ++ reactivity 9th: 0 number
